From article PMC9329436, “Optimization of the 4-anilinoquin(az)oline scaffold as epidermal growth factor receptor (EGFR) inhibitors for chordoma utilizing a toxicology profiling assay platform” (Scientific Reports, 2022)
Like-named read-outs stand apart in the source and are kept apart here.

Assays:
Format in all cases: biochemical
[1] = target: 320 wild-type protein kinases (Homo sapiens, UniProt P06241); conditions: FYN, singlicate
Excerpt: (§1) Table S4. Profiling of two compounds at two concentrations against 320 wild-type protein kinases; singlicate measurement; Residual activities (% of control).

[2] = target: T1, 320 wild-type protein kinases (Homo sapiens, UniProt Q9H2K8); conditions: kinase TAOK3, singlicate
T1 sequence (Q9H2K8 1-898): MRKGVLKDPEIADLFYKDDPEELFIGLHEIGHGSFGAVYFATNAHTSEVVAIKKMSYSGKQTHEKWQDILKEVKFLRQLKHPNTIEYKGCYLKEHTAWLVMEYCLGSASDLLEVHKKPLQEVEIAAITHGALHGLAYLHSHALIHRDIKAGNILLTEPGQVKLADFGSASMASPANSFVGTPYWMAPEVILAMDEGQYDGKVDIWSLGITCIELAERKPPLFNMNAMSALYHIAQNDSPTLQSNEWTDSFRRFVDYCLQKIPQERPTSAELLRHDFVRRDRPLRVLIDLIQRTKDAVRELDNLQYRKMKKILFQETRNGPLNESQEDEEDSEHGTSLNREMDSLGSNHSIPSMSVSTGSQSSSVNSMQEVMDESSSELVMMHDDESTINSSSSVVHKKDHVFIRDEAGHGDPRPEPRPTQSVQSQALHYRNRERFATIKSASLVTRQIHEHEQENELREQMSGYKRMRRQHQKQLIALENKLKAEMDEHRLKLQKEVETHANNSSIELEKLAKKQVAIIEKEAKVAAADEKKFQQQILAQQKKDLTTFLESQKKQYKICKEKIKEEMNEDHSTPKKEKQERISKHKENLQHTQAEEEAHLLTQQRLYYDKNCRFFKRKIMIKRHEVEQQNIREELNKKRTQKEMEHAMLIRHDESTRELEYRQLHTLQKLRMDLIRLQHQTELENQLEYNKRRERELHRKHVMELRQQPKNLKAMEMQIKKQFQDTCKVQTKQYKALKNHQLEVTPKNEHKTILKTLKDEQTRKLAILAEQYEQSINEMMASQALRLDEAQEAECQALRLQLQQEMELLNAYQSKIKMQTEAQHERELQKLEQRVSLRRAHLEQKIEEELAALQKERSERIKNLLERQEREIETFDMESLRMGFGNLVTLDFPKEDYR
Excerpt: as §1

[3] = target: 320 wild-type protein kinases (Homo sapiens, UniProt P53355); conditions: singlicate
Excerpt: as §1

[4] = target: T2, 320 wild-type protein kinases (Homo sapiens, UniProt P54760); conditions: singlicate
T2 sequence (P54760 16-987): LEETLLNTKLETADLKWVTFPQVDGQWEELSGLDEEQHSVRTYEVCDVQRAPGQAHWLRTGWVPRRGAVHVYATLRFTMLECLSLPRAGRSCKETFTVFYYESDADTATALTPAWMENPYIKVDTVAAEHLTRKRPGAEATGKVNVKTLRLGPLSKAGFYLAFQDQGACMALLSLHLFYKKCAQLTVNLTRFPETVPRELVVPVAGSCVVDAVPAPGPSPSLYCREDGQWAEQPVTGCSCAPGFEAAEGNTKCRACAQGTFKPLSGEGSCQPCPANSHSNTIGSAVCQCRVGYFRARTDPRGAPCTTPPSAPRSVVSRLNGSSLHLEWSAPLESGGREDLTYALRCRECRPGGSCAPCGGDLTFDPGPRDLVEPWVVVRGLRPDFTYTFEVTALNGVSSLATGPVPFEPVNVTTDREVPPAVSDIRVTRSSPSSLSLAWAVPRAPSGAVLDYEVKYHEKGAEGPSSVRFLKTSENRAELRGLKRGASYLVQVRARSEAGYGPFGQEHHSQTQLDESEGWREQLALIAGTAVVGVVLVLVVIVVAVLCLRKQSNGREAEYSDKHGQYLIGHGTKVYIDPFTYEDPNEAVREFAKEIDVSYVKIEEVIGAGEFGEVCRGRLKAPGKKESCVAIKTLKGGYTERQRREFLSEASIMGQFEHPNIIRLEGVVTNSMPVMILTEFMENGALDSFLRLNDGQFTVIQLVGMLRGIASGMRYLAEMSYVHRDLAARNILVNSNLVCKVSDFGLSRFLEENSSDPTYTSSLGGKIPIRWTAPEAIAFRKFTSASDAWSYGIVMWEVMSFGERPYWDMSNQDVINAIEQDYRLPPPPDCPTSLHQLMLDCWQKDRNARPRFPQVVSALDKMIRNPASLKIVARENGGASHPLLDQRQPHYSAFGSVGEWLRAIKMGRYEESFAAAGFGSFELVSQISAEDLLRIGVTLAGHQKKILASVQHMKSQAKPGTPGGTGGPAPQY
Excerpt: as §1

[5] = target: T3, 320 wild-type protein kinases (Homo sapiens, UniProt P15735); conditions: singlicate
T3 sequence (P15735 1-406): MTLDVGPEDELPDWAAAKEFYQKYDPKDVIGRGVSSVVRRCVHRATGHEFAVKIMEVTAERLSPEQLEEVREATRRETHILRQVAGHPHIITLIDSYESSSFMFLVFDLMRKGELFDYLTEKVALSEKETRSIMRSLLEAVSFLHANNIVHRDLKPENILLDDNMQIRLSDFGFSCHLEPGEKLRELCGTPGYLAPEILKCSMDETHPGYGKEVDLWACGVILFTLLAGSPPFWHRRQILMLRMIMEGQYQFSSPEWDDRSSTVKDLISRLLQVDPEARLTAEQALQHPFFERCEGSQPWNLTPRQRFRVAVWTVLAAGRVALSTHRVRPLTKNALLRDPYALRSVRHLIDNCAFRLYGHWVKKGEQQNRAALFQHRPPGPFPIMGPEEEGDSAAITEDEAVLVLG
Excerpt: as §1

[6] = target: 320 wild-type protein kinases (Homo sapiens, UniProt Q9Y6E0); conditions: singlicate
Excerpt: as §1

[7] = target: 320 wild-type protein kinases (Homo sapiens, UniProt P15056); conditions: B-RAF, singlicate
Excerpt: as §1

Sequence of 320 wild-type protein kinases (Homo sapiens, UniProt P15056) (P15056 whole entry): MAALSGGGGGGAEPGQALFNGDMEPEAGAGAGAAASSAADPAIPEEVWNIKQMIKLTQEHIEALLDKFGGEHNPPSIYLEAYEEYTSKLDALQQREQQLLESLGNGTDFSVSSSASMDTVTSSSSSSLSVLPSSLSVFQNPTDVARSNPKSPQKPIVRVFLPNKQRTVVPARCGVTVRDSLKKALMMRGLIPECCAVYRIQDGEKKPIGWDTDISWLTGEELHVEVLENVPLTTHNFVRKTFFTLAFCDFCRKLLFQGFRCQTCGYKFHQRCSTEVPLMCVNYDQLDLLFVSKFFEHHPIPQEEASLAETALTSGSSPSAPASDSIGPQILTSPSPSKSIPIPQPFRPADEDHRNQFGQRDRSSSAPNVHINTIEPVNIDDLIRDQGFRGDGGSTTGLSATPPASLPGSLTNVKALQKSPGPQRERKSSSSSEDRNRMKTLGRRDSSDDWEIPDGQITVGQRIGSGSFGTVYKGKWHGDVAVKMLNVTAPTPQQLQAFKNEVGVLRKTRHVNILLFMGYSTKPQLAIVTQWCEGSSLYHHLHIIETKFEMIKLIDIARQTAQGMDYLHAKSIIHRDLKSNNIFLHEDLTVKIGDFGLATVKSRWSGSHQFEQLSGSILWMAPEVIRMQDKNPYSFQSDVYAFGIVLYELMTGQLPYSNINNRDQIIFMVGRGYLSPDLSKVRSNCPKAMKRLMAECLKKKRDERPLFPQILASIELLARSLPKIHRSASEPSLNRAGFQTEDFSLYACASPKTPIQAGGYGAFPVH
Sequence of 320 wild-type protein kinases (Homo sapiens, UniProt P06241) (P06241 whole entry): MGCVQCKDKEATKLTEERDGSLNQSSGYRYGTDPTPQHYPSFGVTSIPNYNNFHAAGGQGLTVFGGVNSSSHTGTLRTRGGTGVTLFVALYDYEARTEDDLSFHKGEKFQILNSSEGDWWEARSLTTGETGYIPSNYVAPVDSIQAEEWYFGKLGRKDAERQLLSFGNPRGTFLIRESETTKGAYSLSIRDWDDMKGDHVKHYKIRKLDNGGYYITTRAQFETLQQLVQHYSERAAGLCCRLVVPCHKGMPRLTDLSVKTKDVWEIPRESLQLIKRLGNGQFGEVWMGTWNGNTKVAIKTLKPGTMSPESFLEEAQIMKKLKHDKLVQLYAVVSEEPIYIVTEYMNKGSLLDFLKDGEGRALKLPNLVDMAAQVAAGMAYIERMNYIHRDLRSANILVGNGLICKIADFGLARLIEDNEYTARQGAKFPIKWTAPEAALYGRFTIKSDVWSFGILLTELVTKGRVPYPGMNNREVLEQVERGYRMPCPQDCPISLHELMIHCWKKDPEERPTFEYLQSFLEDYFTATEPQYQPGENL
Sequence of 320 wild-type protein kinases (Homo sapiens, UniProt Q9Y6E0) (Q9Y6E0 whole entry): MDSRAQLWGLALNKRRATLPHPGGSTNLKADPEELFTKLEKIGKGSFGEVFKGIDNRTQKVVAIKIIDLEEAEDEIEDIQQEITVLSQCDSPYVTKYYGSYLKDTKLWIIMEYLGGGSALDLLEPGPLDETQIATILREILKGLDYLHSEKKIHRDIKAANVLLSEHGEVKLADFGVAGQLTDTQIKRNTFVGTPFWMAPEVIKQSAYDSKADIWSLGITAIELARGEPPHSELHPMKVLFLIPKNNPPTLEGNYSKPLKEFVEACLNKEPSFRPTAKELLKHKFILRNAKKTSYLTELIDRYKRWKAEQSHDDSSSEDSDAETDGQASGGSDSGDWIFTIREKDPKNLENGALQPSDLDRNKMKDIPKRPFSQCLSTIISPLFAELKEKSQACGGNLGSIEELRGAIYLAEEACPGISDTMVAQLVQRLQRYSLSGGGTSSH
Sequence of 320 wild-type protein kinases (Homo sapiens, UniProt P53355) (P53355 whole entry): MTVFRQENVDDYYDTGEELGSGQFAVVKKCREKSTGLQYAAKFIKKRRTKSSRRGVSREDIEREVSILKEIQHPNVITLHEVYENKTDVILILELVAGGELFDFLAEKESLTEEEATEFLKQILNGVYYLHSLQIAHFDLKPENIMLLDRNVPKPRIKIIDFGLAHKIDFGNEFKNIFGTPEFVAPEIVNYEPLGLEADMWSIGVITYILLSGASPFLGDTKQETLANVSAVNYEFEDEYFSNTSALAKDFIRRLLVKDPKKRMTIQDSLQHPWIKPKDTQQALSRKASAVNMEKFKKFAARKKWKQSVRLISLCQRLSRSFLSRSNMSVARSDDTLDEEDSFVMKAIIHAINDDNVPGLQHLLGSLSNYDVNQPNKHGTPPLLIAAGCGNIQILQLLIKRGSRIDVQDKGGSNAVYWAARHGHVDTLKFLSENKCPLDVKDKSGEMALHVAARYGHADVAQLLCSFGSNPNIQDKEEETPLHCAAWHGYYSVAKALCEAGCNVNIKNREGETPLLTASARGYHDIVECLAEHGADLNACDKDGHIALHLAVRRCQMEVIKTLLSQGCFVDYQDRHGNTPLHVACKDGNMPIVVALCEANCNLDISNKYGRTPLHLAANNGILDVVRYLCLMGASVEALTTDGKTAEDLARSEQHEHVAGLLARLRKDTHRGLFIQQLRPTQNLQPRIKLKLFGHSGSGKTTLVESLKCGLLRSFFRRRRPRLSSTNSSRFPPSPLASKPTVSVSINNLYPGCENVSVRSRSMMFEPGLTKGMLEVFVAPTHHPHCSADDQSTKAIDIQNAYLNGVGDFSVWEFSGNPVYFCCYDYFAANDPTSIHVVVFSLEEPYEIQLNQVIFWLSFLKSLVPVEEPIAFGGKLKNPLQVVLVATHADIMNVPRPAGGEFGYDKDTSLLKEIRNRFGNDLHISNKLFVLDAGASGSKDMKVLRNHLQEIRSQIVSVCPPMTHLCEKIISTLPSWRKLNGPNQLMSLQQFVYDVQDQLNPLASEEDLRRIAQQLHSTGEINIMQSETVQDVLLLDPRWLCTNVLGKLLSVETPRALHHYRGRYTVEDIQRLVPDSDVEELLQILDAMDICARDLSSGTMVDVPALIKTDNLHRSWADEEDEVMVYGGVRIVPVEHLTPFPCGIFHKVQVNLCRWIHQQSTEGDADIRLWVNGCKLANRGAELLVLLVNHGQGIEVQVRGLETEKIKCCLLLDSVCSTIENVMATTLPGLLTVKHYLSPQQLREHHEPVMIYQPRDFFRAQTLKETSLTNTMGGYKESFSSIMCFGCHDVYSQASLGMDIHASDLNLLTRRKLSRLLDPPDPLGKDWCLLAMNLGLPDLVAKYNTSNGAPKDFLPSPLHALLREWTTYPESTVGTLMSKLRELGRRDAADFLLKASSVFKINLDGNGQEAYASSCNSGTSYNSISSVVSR

Structure (SMILES)	Residual activity ([1]; 1.0E-06 M)	Residual activity ([1]; 1.0E-07 M)	Residual activity, TAOK3 ([2]; assay conc. 1.0E-06 M)	Residual activity, TAOK3 ([2]; assay conc. 1.0E-07 M)	Residual activity ([3]; DAPK1, 1.0E-06 M)	Residual activity ([3]; DAPK1, 1.0E-07 M)	Residual activity ([4]; EPHB4, 1.0E-06 M)	Residual activity ([4]; EPHB4, 1.0E-07 M)	Residual activity ([5]; PHKG2, 1.0E-06 M)	Residual activity ([5]; PHKG2, 1.0E-07 M)	Residual activity ([6]; MST3, 1.0E-06 M)	Residual activity ([6]; MST3, 1.0E-07 M)	Residual activity ([7]; 1.0E-06 M)	Residual activity ([7]; 1.0E-07 M)
C#Cc1cc(Nc2ncnc3cc(I)ccc23)ccc1Cl [Compound 41]	101 % of control	107 % of control	93 % of control	87 % of control	112 % of control	125 % of control	92 % of control	89 % of control	98 % of control	94 % of control	104 % of control	116 % of control	115 % of control	145 % of control
C#Cc1cc(Nc2ncnc3cc(OC)c(OC)cc23)ccc1Cl [Compound 45]	76 % of control	110 % of control	106 % of control	92 % of control	116 % of control	126 % of control	82 % of control	101 % of control	103 % of control	95 % of control	94 % of control	93 % of control	108 % of control	112 % of control
